{
  "source": "patent US10537541B2",
  "about": "“Treatment of focal segmental glomerular sclerosis (FSGS) using therapeutically effective oral doses of 10-nitro-9(E)-octadec-9-enoic acid” (Complexa, Inc., priority 2015, dated 2020)",
  "key": {"[1]": {"test_system": "deoxycorticosterone acetate (DOCA)/salt-induced model of FSGS", "experiment": "DOCA salt study: histological assessment of kidney", "format": "in vivo, mice (129/sv strain)", "conditions": "DOCA/salt mice, 4 weeks", "procedure": "Induction of model: Male mice (129/sv strain) were purchased from Taconic Labs. The animals were uninephrectomized (Unx) at 6 weeks of age by the vendor and shipped one week after surgery. At 2 weeks post Unx, a DOCA or placebo pellet (21-day release pellets, 50 mg/pellet, Innovative Research of America, Sarasota, Fla.) was implanted s.c. All mice were then placed on a semisynthetic diet which contained a moderate fat content and a low phytoestrogen/anti-oxidant level, which approximates a normal human diet (4). A second DOCA or placebo pellet was implanted three weeks later.\nTreatment: Mice were treated with placebo, 10-nitro-9(E)-octadec-9-enoic acid at a dose of 2.5 and 12.5 mg/kg, or enalapril (standard of care) for 4 weeks by oral gavage starting 2 weeks after the first DOCA implantation. One percent NaCl in tap water was given to each group except the sham control group. Body weight was measured weekly, and doses were readjusted based on the current body weight. Urine and blood samples were collected prior to treatment and at week 2 and 4 of treatment. Mice were terminated at week 4. Data is presented as the mean+SEM for the number of animals listed in each group.\nHistological Assessment: Formalin fixed, paraffin embedded kidneys were sectioned at 3 microns and stained with hematoxylin and eosin (H&E), periodic acid-Schiff (PAS) and Masson's Trichrome for histological analysis. Slides were blindly evaluated by an experienced pathology investigator. Glomerular and tubular pathology, interstitial inflammation and interstitial fibrosis were semi-quantitatively scored on a scale of 0-4 as follows: 0=normal; 1=mild; 2=moderate; 3=marked; 4=severe.\nGlomerular hypertrophy was evaluated by measuring glomerular area and expressed as a mean value of 50 glomeruli per kidney. Glomerular hypertrophy is an important marker for diabetic and hypertensive-mediated chronic kidney disease. […] This finding is consistent with unchanged gene expression profile for podocyte markers (Table 2), and seems reasonable given that the disease was relatively modest."}, "[2]": {"test_system": "deoxycorticosterone acetate (DOCA)/salt-induced model of FSGS", "experiment": "DOCA salt study: serum and urine analyses", "format": "in vivo, mice (129/sv strain)", "conditions": "DOCA/salt mice; for reduction in albuminuria: 2.5 mg/kg p.o. QD", "procedure": "Induction of model: Male mice (129/sv strain) were purchased from Taconic Labs. The animals were uninephrectomized (Unx) at 6 weeks of age by the vendor and shipped one week after surgery. At 2 weeks post Unx, a DOCA or placebo pellet (21-day release pellets, 50 mg/pellet, Innovative Research of America, Sarasota, Fla.) was implanted s.c. All mice were then placed on a semisynthetic diet which contained a moderate fat content and a low phytoestrogen/anti-oxidant level, which approximates a normal human diet (4). A second DOCA or placebo pellet was implanted three weeks later. […] One percent NaCl in tap water was given to each group except the sham control group. Body weight was measured weekly, and doses were readjusted based on the current body weight. Urine and blood samples were collected prior to treatment and at week 2 and 4 of treatment. Mice were terminated at week 4. Data is presented as the mean+SEM for the number of animals listed in each group. Serum and urine analyses: Blood samples were collected from the retro-orbital sinus and samples were separated to serum. Serum and urine creatinine (enzymatic assay), blood urea nitrogen (BUN), and serum cholesterol were measured using a Cobas 400 plus bioanalyzer (Roche Diagnostics, IN). Urine samples were collected for 24 h using metabolic cages. Urine albumin was measured by immunoassay Albuwell M (Exocell Inc., Philadelphia, Pa.). Immuno-ELISA according to manufacturer's instructions was used to measure urine nephrin (Exocell Inc., Philadelphia, Pa.) and MCP-1 (Thermal Scientific, Waltham, Mass.). Kim-1 was measured using the E-90KIM Mouse ELISA Kit (Immunology Consultants Laboratory, Portland, Oreg.). Statistical analyses for serum and urine data was performed using a two-tailed Student's t-test."}, "[3]": {"conditions": "low dose 2.5 mg/kg p.o. QD, 4 weeks"}, "[4]": {"conditions": "lower dose 2.5 mg/kg p.o. QD, 4 weeks"}},
  "data": [
    {"compound": "CCCCCCCC/C(=C\\CCCCCCCC(=O)O)[N+](=O)[O-]", "note": "[CXA-10, 10-nitro-9(E)-octadec-9-enoic acid]", "values": [
      {"measurement": "glomerulosclerosis: average scores and percent of glomerular damage (sclerosis)", "setting": "[1]; both doses (2.5 and 12.5 mg/kg p.o. QD)", "value": "significantly reduced"},
      {"measurement": "glomerular hypertrophy (glomerular area, mean of 50 glomeruli per kidney)", "setting": "[1]; high dose 12.5 mg/kg p.o. QD", "value": "did not have an effect"},
      {"measurement": "tubulointerstitial lesions", "setting": "[1]; high dose 12.5 mg/kg p.o. QD", "value": "only slightly"},
      {"measurement": "glomerular hypertrophy (glomerular area, mean of 50 glomeruli per kidney)", "setting": "[1]; low dose 2.5 mg/kg p.o. QD", "value": "reduced"},
      {"measurement": "tubulointerstitial lesions", "setting": "[1]; low dose 2.5 mg/kg p.o. QD", "value": "improved"},
      {"measurement": "reduction in albuminuria", "setting": "[2]; week 2 post-dosing", "value": 49, "unit": "%"},
      {"measurement": "reduction in albuminuria", "setting": "[2]; week 4 post-dosing", "value": 34, "unit": "%"},
      {"measurement": "albuminuria", "setting": "[2]; high dose 12.5 mg/kg p.o. QD", "value": "had an effect initially but it was not sustained"},
      {"measurement": "urinary MCP-1 excretion", "setting": "[2]; high dose 12.5 mg/kg p.o. QD, 4 weeks", "value": "had no effect"},
      {"measurement": "plasma cholesterol", "setting": "[2]; [3]", "value": "reduced"},
      {"measurement": "urinary MCP-1 excretion", "setting": "[2]; [3]", "value": "significantly reduced"},
      {"measurement": "albumin excretion", "setting": "[2]; [4]", "value": "markedly reduced"},
      {"measurement": "urinary nephrin levels", "setting": "[2]; [4]", "value": "markedly reduced"}
    ]}
  ]
}
